Consider 23 compounds from patent publication US8263656B2 (Hoffmann-La Roche Inc., priority 2008, dated 2012).

A word on the IC50: it is the concentration that inhibits the measured activity by half.

This assay addresses T1, human CRTH2 (Homo sapiens, UniProt Q9Y5Y4).
T1 construct: expressed in transfected cells
T1 sequence (Q9Y5Y4 1-395): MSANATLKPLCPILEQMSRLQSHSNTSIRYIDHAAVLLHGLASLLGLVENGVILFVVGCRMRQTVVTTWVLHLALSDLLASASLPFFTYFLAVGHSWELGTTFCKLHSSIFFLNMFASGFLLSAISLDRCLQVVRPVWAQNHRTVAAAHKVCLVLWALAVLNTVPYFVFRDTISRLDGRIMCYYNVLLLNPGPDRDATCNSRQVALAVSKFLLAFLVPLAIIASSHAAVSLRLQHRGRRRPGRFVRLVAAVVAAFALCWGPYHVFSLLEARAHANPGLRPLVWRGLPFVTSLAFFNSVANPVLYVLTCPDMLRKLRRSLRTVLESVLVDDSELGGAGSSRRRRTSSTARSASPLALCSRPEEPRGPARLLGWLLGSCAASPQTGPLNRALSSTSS
The experiment in a line: Human CRTH2 Receptor Binding Assay (whole cell, [3H]ramatroban competition). The note with it: CHO-K1 cells expressing human CRTH2 and G-alpha16; 20 nM [3H]ramatroban; 1 hour, room temperature. The text has this: A whole cell receptor binding assay using [^3H]ramatroban as the competing radioactive ligand was employed to evaluate the compound binding activity to human CRTH2. The radioactive ligand [^3H]ramatroban was synthesized according to Sugimoto et. al. (Eur. J. Pharmacol. 524, 30-37, 2005) to a specific activity of 42 Ci/mmol.
A cell line stably expressing human CRTH2 was established by transfecting CHO-K1 cells with two mammalian expression vectors that harbored human CRTH2 and G-alpha16 cDNAs, respectively, using FuGene® 6 transfection reagent (from Roche). Stable clones expressing CRTH2 were selected by staining each clone with BM16 (BD Pharmingen™ from BD Biosciences, a division of Becton, Dickinson and Company), which is a rat monoclonal antibody to human CRTH2. The cells were maintained as monolayer cultures in Ham's F-12 medium containing 10% fetal bovine serum, 100 units/mL penicillin, […] streptomycin, 2 mM glutamine, 0.5 mg/mL G418 (geneticin) for CRTH2, and 0.2 mg/mL hygromycin-B (for G-alpha 16). For whole cell receptor binding assay, the monolayer cells were rinsed once with PBS (phosphate buffered saline), dissociated using diammonium ethylenediaminetetraacetate (Versene™ EDTA from the Dow Chemical Company), and suspended in PBS containing 10 mM MgCl2 and 0.06% BSA (bovine serum albumin) at 1.5×10^6 cells/mL.
The binding reactions (0.2 mL) were performed in 96-well plates at room temperature in PBS containing 1.5×10^5 cells, 10 mM MgCl2, 0.06% BSA, 20 nM [^3H]ramatroban, and test compound at various concentrations. After 1 hour of binding reactions, the cells were harvested on GF™/B filter microplates (microtiter plates with embedded glass fiber from PerkinElmer, Inc.) and washed 5 times with PBS using a Filtermate™ Harvester (a cell harvester that harvests and washes cells from microplates from PerkinElmer, Inc.). The radioactivities bound to the cells were determined using a microplate scintillation counter (TopCount® NXT, from PerkinElmer, Inc.) after adding 50 μL of Microscint™ 20 scintillation fluid (from PerkinElmer, Inc.) to each well of the filter plates. The radioactivity from non-specific binding was determined by replacing compound with 10 μM of 15(R)-15-methyl PGD2 (from Cayman Chemical Company) in the reaction mixtures. The radioactivity bound to the cells in the absence of compound (total binding) was determined by replacing compound with 0.25% of DMSO (dimethyl sulfoxide) in the reaction mixture. Specific binding data were obtained by subtracting the radioactivity of non-specific binding from each binding data.
The IC50 value is defined as the concentration of the tested compound that is required for 50% inhibition of total specific binding. In order to calculate the IC50 value, the percent inhibition data were determined for 7 concentrations for each compound. The percent inhibition for a compound at each concentration was calculated according to the following formula, [1-(specific binding in the presence of compound)/(total specific binding)]×100. The IC50 value was then obtained by fitting the percent inhibition data to a sigmoidal dose-response (4 parameter logistic) model in the XLfit® software Excel add-in program [from ID Business Solutions Ltd., model 205, where F(x)=(A+(B−A)/(1+((C/x)^D)))].
The compound `CN(C1CCCc2c1cc(Cl)c(F)c2OCC(=O)O)S(=O)(=O)c1cc(Br)cc(C(F)(F)F)c1` (centres unmarked) [Example 2-12, {5-[(3-Bromo-5-trifluoromethyl-benzenesulfonyl)-methyl-amino]-3-chloro-2-fluoro-5,6,7,8-tetrahydro-naphthalen-1-yloxy}-acetic acid] yielded an IC50 of 12.3 nM.

In turn, `O=C(O)COc1c(Cl)ccc2c1CCCC2NS(=O)(=O)c1cc(C(F)(F)F)cc(C(F)(F)F)c1` (centres unmarked) [Example 1-7, [5-(3,5-Bis-trifluoromethyl-benzenesulfonyl-amino)-2-chloro-5,6,7,8-tetrahydro-naphthalen-1-yloxy]-acetic acid] gave an IC50 of 292 nM. In the case of `O=C(O)COc1cc(Cl)cc2c1CCCC2NS(=O)(=O)c1ccc(Cl)cc1Cl` (centres unmarked) [Example 1-11, [3-Chloro-5-(2,4-dichloro-benzenesulfonyl-amino)-5,6,7,8-tetrahydro-naphthalen-1-yloxy]-acetic acid], the IC50 was 3.5 nM. Next, `O=C(O)COc1cc(F)cc2c1CCCC2NS(=O)(=O)c1cc(Br)cc(C(F)(F)F)c1` (centres unmarked) [Example 1-28, [5-(3-Bromo-5-trifluoromethyl-benzenesulfonyl-amino)-3-fluoro-5,6,7,8-tetrahydro-naphthalen-1-yloxy]-acetic acid]: 4.2 nM; `Cc1c(Cl)cc2c(c1OCC(=O)O)CCCC2N(C)S(=O)(=O)c1cc(C(F)(F)F)cc(C(F)(F)F)c1` (centres unmarked) [Example 2-8, {5-[(3,5-Bis-trifluoromethyl-benzenesulfonyl)-methyl-amino]-3-chloro-2-methyl-5,6,7,8-tetrahydro-naphthalen-1-yloxy}-acetic acid]: 638 nM; `CN(C1CCCc2c1ccc(F)c2OCC(=O)O)S(=O)(=O)c1cc(C(F)(F)F)cc(C(F)(F)F)c1` (centres unmarked) [Example 2-17]: 199 nM. Next, `O=C(O)COc1c(F)c(Cl)cc2c1CCC[C@H]2NS(=O)(=O)c1cc(Br)cc(C(F)(F)F)c1` [Example 1-39, [(R)-5-(3-Bromo-5-trifluoromethyl-benzenesulfonyl-amino)-3-chloro-2-fluoro-5,6,7,8-tetrahydro-naphthalen-1-yloxy]-acetic acid]: 2.6 nM; `O=C(O)COc1c(F)c(Cl)cc2c1CCCC2NS(=O)(=O)c1cc(Cl)ccc1Cl` (centres unmarked) [Example 1-10]: 11.4 nM.

`O=C(O)COc1c(F)ccc2c1CCCC2NS(=O)(=O)c1cc(C(F)(F)F)cc(C(F)(F)F)c1` (centres unmarked) [Example 1-22, [5-(3,5-Bis-trifluoromethyl-benzenesulfonyl-amino)-2-fluoro-5,6,7,8-tetrahydro-naphthalen-1-yloxy]-acetic acid]: the IC50 was 33.7 nM. Next, `O=C(O)COc1cc(-c2ccccc2)cc2c1CCCC2NS(=O)(=O)c1cc(C(F)(F)F)cc(C(F)(F)F)c1` (centres unmarked) [Example 1-24, [5-(3,5-Bis-trifluoromethyl-benzenesulfonyl-amino)-3-phenyl-5,6,7,8-tetrahydro-naphthalen-1-yloxy]-acetic acid]: 3.7 nM. `CN([C@@H]1CCCc2c(OCC(=O)O)cc(Cl)cc21)S(=O)(=O)c1cc(C(F)(F)F)cc(C(F)(F)F)c1` [Example 2-5, {(R)-5-[(3,5-Bis-trifluoromethyl-benzenesulfonyl)-methyl-amino]-3-chloro-5,6,7,8-tetrahydro-naphthalen-1-yloxy}-acetic acid]: the IC50 was determined as 5.9 nM. Next, `O=C(O)COc1c(F)c(Cl)cc2c1CCC[C@H]2NS(=O)(=O)c1ccc(Cl)cc1Cl` [Example 1-40, [(R)-3-Chloro-5-(2,4-dichloro-benzenesulfonyl-amino)-2-fluoro-5,6,7,8-tetrahydro-naphthalen-1-yloxy]-acetic acid]: 6.3 nM; `CC(C)c1cccc(-c2ccc(S(=O)(=O)NC3CCCc4c(OCC(=O)O)cc(Cl)cc43)nc2)c1` (centres unmarked) [Example 1-36, {3-Chloro-5-[5-(3-isopropyl-phenyl)-pyridine-2-sulfonylamino]-5,6,7,8-tetrahydro-naphthalen-1-yloxy}-acetic acid]: 4.5 nM; `COc1cc(OCC(=O)O)c2c(c1)[C@H](NS(=O)(=O)c1cc(C(F)(F)F)cc(C(F)(F)F)c1)CCC2` [Example 1-23, [(R)-5-(3,5-Bis-trifluoromethyl-benzenesulfonyl-amino)-3-methoxy-5,6,7,8-tetrahydro-naphthalen-1-yloxy]-acetic acid]: 3.6 nM.

Compound `O=C(O)COc1cc(Cl)cc2c1CCCC2NS(=O)(=O)c1cc(Br)cc(C(F)(F)F)c1` (centres unmarked) [Example 1-17, [5-(3-Bromo-5-trifluoromethyl-benzenesulfonyl-amino)-3-chloro-5,6,7,8-tetrahydro-naphthalen-1-yloxy]-acetic acid] came in with an IC50 of 3.6 nM. `O=C(O)COc1c(Cl)c(Cl)cc2c1CCCC2NS(=O)(=O)c1cc(C(F)(F)F)cc(C(F)(F)F)c1` (centres unmarked) [Example 1-12, [5-(3,5-Bis-trifluoromethyl-benzenesulfonyl-amino)-2,3-dichloro-5,6,7,8-tetrahydro-naphthalen-1-yloxy]-acetic acid] showed an IC50 of 26.1 nM. Next, `O=C(O)COc1cc(Br)cc2c1CCCC2NS(=O)(=O)c1cc(C(F)(F)F)cc(C(F)(F)F)c1` (centres unmarked) [Example 1-19, [5-(3,5-Bis-trifluoromethyl-benzenesulfonyl-amino)-3-bromo-5,6,7,8-tetrahydro-naphthalen-1-yloxy]-acetic acid]: 2.9 nM; `O=C(O)COc1cc(Br)cc2c1CCC[C@H]2NS(=O)(=O)c1cc(Br)cc(C(F)(F)F)c1` [Example 1-37, [(R)-3-Bromo-5-(3-bromo-5-trifluoromethyl-benzenesulfonyl-amino)-5,6,7,8-tetrahydro-naphthalen-1-yloxy]-acetic acid]: 2.8 nM; `O=C(O)COc1c(F)c(F)cc2c1CCCC2NS(=O)(=O)c1cc(Br)cc(C(F)(F)F)c1` (centres unmarked) [Example 1-29, [5-(3-Bromo-5-trifluoromethyl-benzenesulfonyl-amino)-2,3-difluoro-5,6,7,8-tetrahydro-naphthalen-1-yloxy]-acetic acid]: 18.2 nM. Regarding `CN(C1CCCc2c1cc(Cl)c(F)c2OCC(=O)O)S(=O)(=O)c1cc(C(F)(F)F)cc(C(F)(F)F)c1` (centres unmarked) [Example 2-1, {5-[(3,5-Bis-trifluoromethyl-benzenesulfonyl)-methyl-amino]-3-chloro-2-fluoro-5,6,7,8-tetrahydro-naphthalen-1-yloxy}-acetic acid], the IC50 worked out at 8 nM. Turning to `O=C(O)COc1c(F)c(F)cc2c1CCCC2NS(=O)(=O)c1cc(Cl)ccc1Cl` (centres unmarked) [Example 1-32, [5-(2,5-Dichloro-benzenesulfonyl-amino)-2,3-difluoro-5,6,7,8-tetrahydro-naphthalen-1-yloxy]-acetic acid], the IC50 worked out at 269 nM. Compound `O=C(O)COc1cc(Cl)cc2c1CCCC2NS(=O)(=O)c1cc(F)cc(C(F)(F)F)c1` (centres unmarked) [Example 1-16, [3-Chloro-5-(3-fluoro-5-trifluoromethyl-benzenesulfonyl-amino)-5,6,7,8-tetrahydro-naphthalen-1-yloxy]-acetic acid] showed an IC50 of 3.8 nM.

In turn, `CN(C1CCCc2c1cc(Cl)c(Cl)c2OCC(=O)O)S(=O)(=O)c1cc(C(F)(F)F)cc(C(F)(F)F)c1` (centres unmarked) [Example 2-7, {5-[(3,5-Bis-trifluoromethyl-benzenesulfonyl)-methyl-amino]-2,3-dichloro-5,6,7,8-tetrahydro-naphthalen-1-yloxy}-acetic acid] displayed an IC50 of 333 nM.
